Activity calls are given as the source filed them. No cut-off for these calls is given here.
What was measured:
[1] = molecular target: T1, Serine/threonine protein kinase YCK2 (Candida albicans (strain SC5314 / ATCC MYA-2876) (Yeast), UniProt A0A1D8PKB4)
T1 sequence (A0A1D8PKB4 whole entry): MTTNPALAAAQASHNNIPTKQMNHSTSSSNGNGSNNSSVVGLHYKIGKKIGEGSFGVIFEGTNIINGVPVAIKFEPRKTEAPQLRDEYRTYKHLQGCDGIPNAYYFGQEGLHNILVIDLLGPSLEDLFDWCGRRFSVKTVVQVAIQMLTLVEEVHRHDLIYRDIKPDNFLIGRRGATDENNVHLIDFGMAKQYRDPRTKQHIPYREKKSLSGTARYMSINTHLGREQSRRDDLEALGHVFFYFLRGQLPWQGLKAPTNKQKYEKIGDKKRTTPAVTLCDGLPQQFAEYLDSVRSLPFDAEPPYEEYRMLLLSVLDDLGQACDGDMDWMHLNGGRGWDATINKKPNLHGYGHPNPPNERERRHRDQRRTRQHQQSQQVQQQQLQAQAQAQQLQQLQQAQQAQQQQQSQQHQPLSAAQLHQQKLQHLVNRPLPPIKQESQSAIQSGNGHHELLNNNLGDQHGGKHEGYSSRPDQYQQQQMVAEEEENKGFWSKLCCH

[2] = molecular target: T1, Serine/threonine protein kinase YCK2; format: cell-based, HEK293
[3] = molecular target: T2, Casein kinase I isoform epsilon (Homo sapiens, UniProt P49674); assay: Inhibition of human CK1epsilon transfected in HEK293 cells at 10 uM using NanoBRET NanoGlo substrate incubated for 2 hrs in presence of K8 tracer by NanoBRET assay relative to control; format: cell-based
Target sequence in this assay (P49674 whole entry, looked up, canonical isoform): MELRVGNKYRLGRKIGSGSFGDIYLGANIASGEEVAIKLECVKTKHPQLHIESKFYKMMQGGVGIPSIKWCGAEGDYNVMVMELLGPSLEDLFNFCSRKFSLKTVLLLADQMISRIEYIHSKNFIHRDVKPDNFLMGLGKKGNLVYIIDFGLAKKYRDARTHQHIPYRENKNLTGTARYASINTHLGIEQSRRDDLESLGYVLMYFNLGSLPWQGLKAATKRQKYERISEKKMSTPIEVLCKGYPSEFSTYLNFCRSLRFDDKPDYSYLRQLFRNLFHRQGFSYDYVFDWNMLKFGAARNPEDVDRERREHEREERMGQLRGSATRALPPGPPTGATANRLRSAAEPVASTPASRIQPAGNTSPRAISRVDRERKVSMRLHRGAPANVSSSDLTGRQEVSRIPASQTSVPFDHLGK

[4] = molecular target: T3, Mitogen-activated protein kinase 14 (Homo sapiens, UniProt Q16539)
[5] = molecular target: T2, Casein kinase I isoform epsilon; format: cell-based, HEK293
Target sequence in this assay (P49674 whole entry, canonical isoform): as the sequence (P49674 whole entry, looked up, canonical isoform) above

[6] = molecular target: Casein kinase I isoform alpha (Homo sapiens, UniProt P48729)
[7] = molecular target: T4, Casein kinase I isoform delta (Homo sapiens, UniProt P48730); format: cell-based, HEK293
Target sequence in this assay (P48730 whole entry, canonical isoform): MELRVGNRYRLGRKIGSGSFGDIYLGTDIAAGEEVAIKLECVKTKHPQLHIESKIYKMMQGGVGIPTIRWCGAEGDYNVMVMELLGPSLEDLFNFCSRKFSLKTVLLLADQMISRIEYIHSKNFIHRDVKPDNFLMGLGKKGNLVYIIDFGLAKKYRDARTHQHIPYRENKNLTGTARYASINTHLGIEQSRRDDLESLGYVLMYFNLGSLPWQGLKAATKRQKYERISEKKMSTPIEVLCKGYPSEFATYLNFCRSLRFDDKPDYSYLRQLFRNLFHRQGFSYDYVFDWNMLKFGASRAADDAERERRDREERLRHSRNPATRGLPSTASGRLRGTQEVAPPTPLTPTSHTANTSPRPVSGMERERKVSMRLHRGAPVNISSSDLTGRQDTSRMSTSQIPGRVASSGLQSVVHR

[8] = molecular target: T3, Mitogen-activated protein kinase 14; assay: Inhibition of human P38alpha transfected in HEK293 cells using NanoBRET NanoGlo substrate incubated for 2 hrs in presence of K4 tracer by NanoBRET assay; format: cell-based
[9] = molecular target: Mitogen-activated protein kinase 11 (Homo sapiens) (UniProt Q15759); assay: Binding affinity to human P38beta transfected in HEK293 cells at 0.1 to 10 uM by MIB/MS competition assay; format: cell-based; details: dose 0.1-10 µM
[10] = molecular target: Receptor-interacting serine/threonine-protein kinase 2 (Homo sapiens) (UniProt O43353); assay: Binding affinity to human RIPK2 transfected in HEK293 cells at 0.1 to 10 uM by MIB/MS competition assay; format: cell-based; details: dose 0.1-10 µM
[11] = molecular target: Serine/threonine-protein kinase N3 (Homo sapiens) (UniProt Q6P5Z2); assay: Binding affinity to human PKN3 transfected in HEK293 cells at 0.1 to 10 uM by MIB/MS competition assay; format: cell-based; details: dose 0.1-10 µM
HEK293 [12] = details: Candida albicans, dose 10.0 µM
[13] = molecular target: T2, Casein kinase I isoform epsilon; assay: Binding affinity to human CK1epsilon transfected in HEK293 cells at 0.1 to 10 uM by MIB/MS competition assay; format: cell-based; details: dose 0.1-10 µM
Target sequence in this assay (P49674 whole entry, looked up, canonical isoform): as the sequence (P49674 whole entry, looked up, canonical isoform) above

HEK293 [14] = details: Candida albicans, dose 10.0 µM; remark: listed apart in the source
[15] = molecular target: T5, Serine/threonine protein kinase YCK2 (Candida albicans (strain SC5314 / ATCC MYA-2876) (Yeast)) (UniProt A0A1D8PKB4); details: HEK293, dose 10.0 µM
T5 sequence (whole entry): T1 sequence (A0A1D8PKB4 whole entry)

[16] = molecular target: T5, Serine/threonine protein kinase YCK2 (Candida albicans (strain SC5314 / ATCC MYA-2876) (Yeast)); details: HEK293, dose 10.0 µM; remark: listed apart in the source
HEK293 [17] = details: Candida albicans, dose 10.0 µM; remark: listed apart in the source
[18] = molecular target: T4, Casein kinase I isoform delta; assay: Binding affinity to human CK1 delta transfected in HEK293 cells at 0.1 to 10 uM by MIB/MS competition assay; format: cell-based; details: dose 0.1-10 µM
Target sequence in this assay (P48730 whole entry, looked up, canonical isoform): as the sequence (P48730 whole entry, canonical isoform) above

[19] = molecular target: T5, Serine/threonine protein kinase YCK2 (Candida albicans (strain SC5314 / ATCC MYA-2876) (Yeast)); assay: Binding affinity to Candida albicans Yck2 assessed as target engagement by MIB/MS competition assay
Candida albicans [20] = assay: Antifungal activity against Candida albicans harboring mdr1mutant/mutant assessed as inhibition of fungal growth; format: functional, organism-based
Candida albicans [21] = assay: Binding affinity to Candida albicans Hog1 assessed as target engagement at 0.1 to 10 uM by MIB/MS competition analysis; details: dose 0.1-10 µM
Candida albicans [22] = assay: Antifungal activity against Candida albicans harboring cdr2mutant/mutant assessed as inhibition of fungal growth; format: functional, organism-based
Candida albicans [23] = assay: Antifungal activity against Candida albicans harboring flu1mutant/mutant assessed as inhibition of fungal growth; format: functional, organism-based
Candida albicans [24] = assay: Antifungal activity against Candida albicans harboring tetO-YCK2/yck2 mutant assessed as inhibition of fungal growth at 100 uM in presence of doxycyclin; format: functional, organism-based
Candida albicans [25] = assay: Antifungal activity against Candida albicans harboring tetO-ERG6/erg6mutant assessed as inhibition of fungal growth in presence of doxycyclin; format: functional, organism-based
Candida albicans [26] = assay: Antifungal activity against wild type Candida albicans CaSS1 at 100 uM; format: functional, organism-based
Candida albicans [27] = assay: Antifungal activity against Candida albicans harboring cdr1mutant/mutant assessed as inhibition of fungal growth; format: functional, organism-based
Candida albicans [28] = assay: Binding affinity to Candida albicans Hrr25 assessed as target engagement at 0.1 to 10 uM by MIB/MS competition assay; details: dose 0.1-10 µM
Candida albicans [29] = assay: Antifungal activity against Candida albicans harboring tetO-YCK2/yck2 mutant assessed as inhibition of fungal growth at 100 uM in absence of doxycyclin; format: functional, organism-based
[30] = molecular target: T6, Activin receptor type-1B (Homo sapiens) (UniProt P36896); assay: Binding affinity to human ALK4 transfected in HEK293 cells at 0.1 to 10 uM by MIB/MS competition assay; format: cell-based; details: dose 0.1-10 µM
T6 sequence (whole entry): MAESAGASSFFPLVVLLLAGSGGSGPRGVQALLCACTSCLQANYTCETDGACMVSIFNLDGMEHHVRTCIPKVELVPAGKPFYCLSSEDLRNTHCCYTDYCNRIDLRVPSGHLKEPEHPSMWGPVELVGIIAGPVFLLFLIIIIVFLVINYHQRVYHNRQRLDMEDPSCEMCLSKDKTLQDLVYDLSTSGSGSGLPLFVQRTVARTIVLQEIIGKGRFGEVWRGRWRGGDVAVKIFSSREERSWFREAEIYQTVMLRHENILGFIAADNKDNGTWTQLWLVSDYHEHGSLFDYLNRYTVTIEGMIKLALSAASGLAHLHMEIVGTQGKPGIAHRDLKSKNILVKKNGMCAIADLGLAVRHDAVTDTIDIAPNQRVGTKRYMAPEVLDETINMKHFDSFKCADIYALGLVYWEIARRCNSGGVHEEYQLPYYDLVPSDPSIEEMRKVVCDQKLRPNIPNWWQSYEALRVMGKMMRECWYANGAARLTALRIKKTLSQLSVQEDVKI

[31] = molecular target: Casein kinase I isoform gamma-2 (Homo sapiens) (UniProt P78368); assay: Binding affinity to human CK1gamma 2 transfected in HEK293 cells at 0.1 to 10 uM by MIB/MS competition assay; format: cell-based; details: dose 0.1-10 µM
Chain of Casein kinase I isoform gamma-2 (Homo sapiens) (P78368 whole entry, looked up, canonical isoform): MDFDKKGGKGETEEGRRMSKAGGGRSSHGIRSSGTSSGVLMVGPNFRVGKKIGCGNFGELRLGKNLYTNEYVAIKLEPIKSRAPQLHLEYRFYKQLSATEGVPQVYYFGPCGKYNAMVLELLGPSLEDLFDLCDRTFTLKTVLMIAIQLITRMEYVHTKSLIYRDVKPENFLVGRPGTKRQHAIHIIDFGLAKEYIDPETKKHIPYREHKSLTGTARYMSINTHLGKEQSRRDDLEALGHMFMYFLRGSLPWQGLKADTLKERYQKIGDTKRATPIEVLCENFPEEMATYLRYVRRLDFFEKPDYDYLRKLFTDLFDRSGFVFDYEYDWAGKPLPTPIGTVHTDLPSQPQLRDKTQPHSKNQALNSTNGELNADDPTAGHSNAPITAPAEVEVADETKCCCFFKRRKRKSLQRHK

Chain of Casein kinase I isoform alpha (P48729 whole entry, canonical isoform): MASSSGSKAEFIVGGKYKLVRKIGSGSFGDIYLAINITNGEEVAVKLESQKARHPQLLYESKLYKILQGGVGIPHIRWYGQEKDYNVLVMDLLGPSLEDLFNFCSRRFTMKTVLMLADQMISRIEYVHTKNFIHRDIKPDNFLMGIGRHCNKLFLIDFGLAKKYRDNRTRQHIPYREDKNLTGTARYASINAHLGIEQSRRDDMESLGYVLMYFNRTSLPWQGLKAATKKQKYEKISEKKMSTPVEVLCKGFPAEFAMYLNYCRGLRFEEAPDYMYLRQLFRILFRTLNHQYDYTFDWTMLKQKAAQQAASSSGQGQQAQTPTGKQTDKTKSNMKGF
T3 sequence (Q16539 whole entry, canonical isoform): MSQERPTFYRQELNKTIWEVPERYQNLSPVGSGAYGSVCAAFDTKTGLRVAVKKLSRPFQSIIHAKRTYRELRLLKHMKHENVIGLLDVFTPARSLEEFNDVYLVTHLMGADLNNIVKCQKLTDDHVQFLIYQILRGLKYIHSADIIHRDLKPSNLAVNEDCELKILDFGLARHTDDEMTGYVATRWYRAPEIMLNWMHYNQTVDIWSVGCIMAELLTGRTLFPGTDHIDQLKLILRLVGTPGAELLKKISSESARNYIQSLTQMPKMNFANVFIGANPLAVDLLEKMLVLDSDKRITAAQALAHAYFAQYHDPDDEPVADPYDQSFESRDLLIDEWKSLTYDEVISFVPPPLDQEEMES
Chain of Serine/threonine-protein kinase N3 (Homo sapiens) (Q6P5Z2 whole entry, looked up): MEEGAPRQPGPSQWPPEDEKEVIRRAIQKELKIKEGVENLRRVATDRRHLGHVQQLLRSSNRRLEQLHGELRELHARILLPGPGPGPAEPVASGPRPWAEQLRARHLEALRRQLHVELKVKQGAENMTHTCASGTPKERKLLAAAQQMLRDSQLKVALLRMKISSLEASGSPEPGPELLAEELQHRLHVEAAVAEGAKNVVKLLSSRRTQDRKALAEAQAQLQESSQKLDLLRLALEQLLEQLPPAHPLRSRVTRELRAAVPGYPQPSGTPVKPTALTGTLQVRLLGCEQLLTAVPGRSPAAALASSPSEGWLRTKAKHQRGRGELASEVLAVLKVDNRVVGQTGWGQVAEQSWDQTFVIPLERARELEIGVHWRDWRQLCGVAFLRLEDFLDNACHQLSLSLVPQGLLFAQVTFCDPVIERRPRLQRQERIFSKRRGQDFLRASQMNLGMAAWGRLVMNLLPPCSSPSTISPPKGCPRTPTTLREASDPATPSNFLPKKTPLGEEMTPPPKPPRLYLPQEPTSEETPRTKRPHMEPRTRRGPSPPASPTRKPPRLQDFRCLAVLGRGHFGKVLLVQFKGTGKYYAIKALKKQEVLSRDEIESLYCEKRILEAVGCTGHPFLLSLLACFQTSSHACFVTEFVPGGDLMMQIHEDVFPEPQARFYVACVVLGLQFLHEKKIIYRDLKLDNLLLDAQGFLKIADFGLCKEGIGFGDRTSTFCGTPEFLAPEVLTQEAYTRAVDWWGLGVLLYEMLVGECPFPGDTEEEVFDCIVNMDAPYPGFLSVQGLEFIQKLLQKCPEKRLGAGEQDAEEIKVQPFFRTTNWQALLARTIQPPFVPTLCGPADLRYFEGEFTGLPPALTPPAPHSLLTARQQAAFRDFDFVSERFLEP
Chain of Receptor-interacting serine/threonine-protein kinase 2 (Homo sapiens) (O43353 whole entry): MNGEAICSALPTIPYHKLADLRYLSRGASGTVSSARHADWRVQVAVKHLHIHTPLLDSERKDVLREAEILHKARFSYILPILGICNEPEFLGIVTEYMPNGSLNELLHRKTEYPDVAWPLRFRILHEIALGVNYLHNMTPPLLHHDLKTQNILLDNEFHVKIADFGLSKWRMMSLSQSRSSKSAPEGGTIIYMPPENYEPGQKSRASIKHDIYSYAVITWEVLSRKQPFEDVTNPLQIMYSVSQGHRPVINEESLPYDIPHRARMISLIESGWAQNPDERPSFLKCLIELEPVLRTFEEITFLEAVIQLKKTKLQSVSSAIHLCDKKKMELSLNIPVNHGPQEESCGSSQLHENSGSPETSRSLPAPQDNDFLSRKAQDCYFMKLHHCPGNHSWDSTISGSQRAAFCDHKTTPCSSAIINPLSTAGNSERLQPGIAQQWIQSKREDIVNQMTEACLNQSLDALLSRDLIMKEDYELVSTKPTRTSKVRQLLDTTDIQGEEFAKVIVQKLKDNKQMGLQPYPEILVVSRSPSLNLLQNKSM
Chain of Mitogen-activated protein kinase 11 (Homo sapiens) (Q15759 whole entry): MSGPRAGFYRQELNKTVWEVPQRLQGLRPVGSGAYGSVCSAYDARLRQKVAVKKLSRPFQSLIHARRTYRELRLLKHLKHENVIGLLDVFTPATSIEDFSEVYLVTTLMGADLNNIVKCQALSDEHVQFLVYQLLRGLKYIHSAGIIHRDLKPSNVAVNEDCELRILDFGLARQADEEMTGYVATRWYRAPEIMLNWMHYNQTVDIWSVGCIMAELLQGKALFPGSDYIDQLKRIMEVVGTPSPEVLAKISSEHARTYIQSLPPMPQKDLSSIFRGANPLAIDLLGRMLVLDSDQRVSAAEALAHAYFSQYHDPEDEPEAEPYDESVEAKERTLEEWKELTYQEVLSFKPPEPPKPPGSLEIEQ

| Structure (SMILES) | IC50 [1] [nM] | IC50 [2] [nM] | inhibition [3] [%] | IC50 [4] [nM] | IC50 [5] [nM] | IC50 [7] [nM] | IC50 [8] [nM] | other results |
| --- | --- | --- | --- | --- | --- | --- | --- | --- |
| CC(C)(C)c1cnc(CSc2cnc(NC(=O)C3CCNCC3)s2)o1 [BMS-387032] | > 8000 | > 10000 | 25 | – | – | – | – | – |
| Nc1nc(Nc2ccc(S(N)(=O)=O)cc2)n(C(=S)Nc2c(F)cccc2F)n1 | 470 | > 10000 | 25 | > 20000 | > 10000 | – | – | IC50 [6]: > 20000 nM |
| Cc1nc(N)sc1-c1ccnc(Nc2ccc(N3CCOCC3)cc2)n1 [CYC-116] | – | > 10000 | > 50 | > 20000 | ~10000 | – | – | – |
| CNC(=O)c1nn(C)c2c1C(C)(C)Cc1cnc(Nc3ccc(N4CCN(C)CC4)cc3)nc1-2 [MILCICLIB] | 770 | 1100 | – | > 20000 | – | 200 | – | IC50 [6]: 250 nM |
| CC(=O)c1cnc2ccc(-c3cc(Cl)c(O)c(Cl)c3)nc2c1N[C@H]1CC[C@H](CN(C)C)CC1 | – | 660 | – | 40 | – | – | > 10000 | – |
| N#Cc1ccn2c(-c3ccncc3)c(-c3ccc(F)cc3)nc2c1 | – | – | 25 | – | > 10000 | – | – | Activity [9]: Active; Activity [10]: Active; Activity [11]: Active; log2FC (HEK293 [12]): -2.2; Activity [13]: Active; log2FC (HEK293 [14]): -1.4; log2FC [15]: -3.5; log2FC [16]: -2.2; log2FC (HEK293 [17]): -1; Activity [18]: Active |
| C[C@@H](N)c1ccc(C(=O)Nc2ccnc3[nH]ccc23)cc1 [Y-39983] | > 8000 | > 10000 | 25 | > 20000 | > 10000 | > 10000 | – | – |
| Cc1occc1-c1nc(N)c(OC[C@@H](N)Cc2c[nH]c3ccccc23)cc1-c1cc2c(C)n[nH]c2cn1 | 180 | 3700 | – | – | 620 | 1400 | – | – |
| Cc1n[nH]c2ccc(-c3cc(OC[C@@H](N)Cc4ccccc4)cnc3-c3ccoc3)cc12 | – | 100 | – | – | 200 | 100 | – | Activity [19]: Dose-dependent-effect |
| CC(C)(C)n1nc(Cc2cccc3ccccc23)c2c(N)ncnc21 | > 8000 | – | – | 750 | 14 | > 10000 | 1600 | – |
| Cc1ccc2c(-c3ccncc3)c(-c3ccc(F)cc3)nn2c1 | – | – | – | – | 780 | 230 | 44 | – |
| CC(C)[C@H](CO)Nc1nc(Nc2cc(N)cc(Cl)c2)c2ncn(C(C)C)c2n1 [AMINOPURVALANOL] | > 8000 | > 10000 | 25 | > 20000 | > 10000 | > 10000 | – | IC50 [6]: > 20000 nM |
| CN1CCC(F)(Cn2cnc(-c3ccc(F)cn3)c2-c2ccnc3[nH]ccc23)CC1 | 640 | > 10000 | – | – | 82 | – | – | IC50 [6]: 14 nM |
| c1ccc(-c2n[nH]cc2-c2ccnc3ccccc23)nc1 | – | – | < 25 | 2600 | – | 2800 | 760 | Activity (Candida albicans [20]): inactive; Activity (Candida albicans [21]): inactive; Activity (Candida albicans [22]): inactive; Activity (Candida albicans [23]): inactive; Activity (Candida albicans [24]): Active; Activity (Candida albicans [25]): Active; Activity (Candida albicans [26]): Active; Weakly Active; Activity (Candida albicans [27]): inactive; Activity (Candida albicans [28]): Active; Activity (Candida albicans [29]): Active |
| CC(C)n1nc(-c2cc3cc(O)ccc3[nH]2)c2c(N)ncnc21 | – | – | > 50 | – | – | – | – | – |
| N#Cc1ccc2c(-c3ccncc3)c(-c3ccc(F)cc3)nn2c1 | – | – | 25 | – | > 10000 | – | 80 | Activity [30]: Active; Activity [10]: Active; Activity [11]: Active; Activity [13]: Active; Activity [31]: Active; Activity [18]: Active |

From ChEMBL document CHEMBL6109119, “Chemoproteomic Profiling of C. albicans for Characterization of Antifungal Kinase Inhibitors” (J Med Chem, 2025)
